# Data taken from US8969542B2, “HPV polyepitope constructs and uses thereof” (priority 2007, dated 2015).
# Columns and labels:
# [1] = test system: CD8+ spleen cells of HLA transgenic mice (HLA-A01/Kb, F1 HLA-A02/KbxBalb/c, HLA-A11/Kb, HLA-A24/Kb); experiment: Immunogenicity after HPV DNA construct immunization, direct ex vivo IFNγ ELISPOT; type: in vivo, mouse; conditions: for ICCG6138 SFC/10^6 cells Delta / ICCG6138 SFC/10^6 cells Ratio: immunization with DNA construct ICCG 6138; for ICCG6138 SFC/10^6 cells Delta / ICCG6137 SFC/10^6 cells Delta: HLA transgenic mice (HLA-A01/A02/A11/A24), CD8+ cells restimulated with WT peptide 10 μg/mL; for ICCG6138 SFC/10^6 cells Delta / ICCG6138 SFC/10^6 cells Ratio / ICCG6137 SFC/10^6 cells Delta / ICCG6137 SFC/10^6 cells Ratio: IFNγ ELISPOT; for ICCG6138 SFC/10^6 cells Ratio / ICCG6137 SFC/10^6 cells Ratio: HLA transgenic mice, response ratio, WT peptide 10 μg/mL; for ICCG6137 SFC/10^6 cells Delta / ICCG6137 SFC/10^6 cells Ratio: immunization with DNA construct ICCG 6137
# Description: The immunogenicity of HPV HLA class I-restricted epitopes encoded in the DNA constructs was tested in the relevant HLA transgenic mice. […] To ensure an equal distribution of mice between different groups, a randomisation procedure based on body weight was performed. Female and male mice (age between 8 and 24 weeks) were ranked by body weight, extreme light or heavy animals were excluded. The remaining animals were grouped by sequentially assigning animals for the 2 experiments.
# Mice were pre-treated with cardiotoxin (Sigma, C9759) on day −4 by bilateral intramuscular injection of 100 μl (2×50 μl) of a 10 μM cardiotoxin solution. Four days later, all mice were immunised with 100 μg HPV-DNA plasmid (diluted to 1 mg/ml in PBS) by bilateral injection of 50 μg in the m. tibialis anterior. […]
# (§1) Mice were euthanized and spleen cells (SPC) were isolated 13 days after immunization. […] Spleen cells of DNA- and peptide-immunized HLA-A11/Kb mice were analyzed individually. SPC of all negative control mice were pooled per 2 mice, resulting in 3 data points for each peptide tested.
# (§2) A direct ex vivo IFNγ ELISPOT assay was used as surrogate CTL readout. Basically, purified CD8+ cells were incubated with the individual HPV-specific HLA-restricted peptides (10 μg/mL) loaded on the appropriate antigen presenting cells (APC), in anti-mouse IFNγ antibody-coated ELISPOT plates. […] After 20 h incubation, IFNγ-producing cells were visualized by further developing the plates with biotinylated anti-mouse IFNγ antibody, streptavidin-HRP and AEC as substrate.
# (§3) Some of the CTL epitopes included in the DNA constructs are analoged sequences of the wild type viral epitopes. For these particular epitopes, only the wild type sequences were used as in vitro stimulus for CTL readout.
# [2] = test system: CD8+ spleen cells of HLA transgenic mice (HLA-A01/Kb, F1 HLA-A02/KbxBalb/c, HLA-A11/Kb, HLA-A24/Kb); experiment: Immunogenicity after peptide pool/IFA immunization, direct ex vivo IFNγ ELISPOT; type: in vivo, mouse; conditions: for Delta SFC/10^6 cells / Ratio: Peptide Pool; for Peptide Pool SFC/10^6 cells Delta / Peptide Pool SFC/10^6 cells Ratio: immunization with pool of peptides emulsified in IFA, IFNγ ELISPOT; for Peptide Pool SFC/10^6 cells Delta: HLA transgenic mice (HLA-A01/A02/A11/A24), CD8+ cells restimulated with WT peptide 10 μg/mL; for Peptide Pool SFC/10^6 cells Ratio: HLA transgenic mice, response ratio, WT peptide 10 μg/mL
# Description: CTL binding epitopes were evaluated for their immunogenicity in different HLA transgenic mice. To this, a single immunization with CTL peptide pools together with a common HTL epitope emulsified in IFA was performed and up to 14 days later, CD8+ spleen cells were isolated and evaluated for epitope specificity using a direct ex vivo IFNγ ELISPOT assay.
# Peptides were dissolved in DMSO at a concentration of 10 mg/mL. For each of the 4 DNA constructs, the corresponding HLA-restricted peptides were pooled per HLA type (5 to 7 CTL peptides/pool). A known HTL peptide ([…]) was added and the peptide pools were diluted in PBS to the required peptide concentration (i.e. 25 μg of each CTL peptide and 120 μg HTL peptide in 50 μl). After adding an equal volume of IFA (Pierce, lot DG56079), the mixture was emulsified by forcing it through a small orifice. Mice were immunized subcutaneously at the base of the tail with 50 μl peptide/IFA mixture.
# As negative control for the peptide-immunized mice, 18 mice (in total) were injected with a PBS/IFA mixture.
# as §1, §2, §3
# [3] = HLA-A01 epitopes, HLA-A01/Kb mice, DNA construct ICCG6150, median of mouse pools
# [4] = HLA-A01 epitopes, HLA-A01/Kb mice, median of mouse pools
# [5] = HLA-A02 epitopes, F1 HLA-A02/KbxBalb/c mice, DNA construct ICCG6149, median of mouse pools
# [6] = HLA-A02 epitopes, F1 HLA-A02/KbxBalb/c mice, DNA construct ICCG6150, median of mouse pools
# [7] = HLA-A02 epitopes, F1 HLA-A02/KbxBalb/c mice, median of mouse pools
# [8] = HLA-A11 epitopes, HLA-A11/Kb mice, DNA construct ICCG6149, median
# [9] = HLA-A11 epitopes, HLA-A11/Kb mice, DNA construct ICCG6150, median
# [10] = HLA-A11 epitopes, HLA-A11/Kb mice, median
# [11] = HLA-A24 epitopes, HLA-A24/Kb mice, DNA construct ICCG6149, median of mouse pools
# [12] = HLA-A24 epitopes, HLA-A24/Kb mice, DNA construct ICCG6150, median of mouse pools
# [13] = HLA-A24 epitopes, HLA-A24/Kb mice, median of mouse pools
substance,measurement,setting,value
132 (ISEYRHYCY; Human papillomavirus type 16) [compound 132],Delta SFC/10^6 cells,[1]; [3],3 SFC/10^6 cells
same,Ratio,[1]; [3],1.1
same,Delta SFC/10^6 cells,[2]; [4],2 SFC/10^6 cells
same,Ratio,[2]; [4],1.1
133 (YMLDLQPETT; Human papillomavirus type 16) [compound 133],Delta SFC/10^6 cells,[1]; [5],5 SFC/10^6 cells
same,Ratio,[1]; [5],1.4
same,Delta SFC/10^6 cells,[1]; [6],10 SFC/10^6 cells
same,Ratio,[1]; [6],3.3
same,Delta SFC/10^6 cells,[2]; [7],1 SFC/10^6 cells
same,Ratio,[2]; [7],1.0
134 (GTLGIVCPI; Human papillomavirus type 16) [compound 134],Delta SFC/10^6 cells,[1]; [5],1 SFC/10^6 cells
same,Ratio,[1]; [5],1.0
same,Delta SFC/10^6 cells,[1]; [6],3 SFC/10^6 cells
same,Ratio,[1]; [6],1.7
same,Delta SFC/10^6 cells,[2]; [7],55 SFC/10^6 cells
same,Ratio,[2]; [7],8.0
135 (TIHDIILECV; Human papillomavirus type 16) [compound 135],Delta SFC/10^6 cells,[1]; [5],562 SFC/10^6 cells
same,Ratio,[1]; [5],86.7
same,Delta SFC/10^6 cells,[1]; [6],358 SFC/10^6 cells
same,Ratio,[1]; [6],24.8
same,Delta SFC/10^6 cells,[2]; [7],80 SFC/10^6 cells
same,Ratio,[2]; [7],10.0
136 (KLTNTGLYNL; Human papillomavirus type 18) [compound 136],Delta SFC/10^6 cells,[1]; [5],6 SFC/10^6 cells
same,Ratio,[1]; [5],2.0
same,Delta SFC/10^6 cells,[1]; [6],20 SFC/10^6 cells
same,Ratio,[1]; [6],2.7
same,Delta SFC/10^6 cells,[2]; [7],280 SFC/10^6 cells
same,Ratio,[2]; [7],29.0
137 (DSVYGDTLEK; Human papillomavirus type 18) [compound 137],Delta SFC/10^6 cells,[1]; [8],15 SFC/10^6 cells
same,Ratio,[1]; [8],1.2
same,Delta SFC/10^6 cells,[1]; [9],1 SFC/10^6 cells
same,Ratio,[1]; [9],1.0
same,Delta SFC/10^6 cells,[2]; [10],40 SFC/10^6 cells
same,Ratio,[2]; [10],1.1
138 (FVVYRDSIPH; Human papillomavirus type 18) [compound 138],Delta SFC/10^6 cells,[1]; [8],1 SFC/10^6 cells
same,Ratio,[1]; [8],1.0
same,Delta SFC/10^6 cells,[1]; [9],1 SFC/10^6 cells
same,Ratio,[1]; [9],1.0
same,Delta SFC/10^6 cells,[2]; [10],110 SFC/10^6 cells
same,Ratio,[2]; [10],1.3
139 (CYSLYGTTL; Human papillomavirus type 16) [compound 139],Delta SFC/10^6 cells,[1]; [11],3 SFC/10^6 cells
same,Ratio,[1]; [11],1.0
same,Delta SFC/10^6 cells,[1]; [12],1 SFC/10^6 cells
same,Ratio,[1]; [12],1.0
same,Delta SFC/10^6 cells,[2]; [13],1 SFC/10^6 cells
same,Ratio,[2]; [13],1.0
140 (PYAVCDKCL; Human papillomavirus type 16) [compound 140],Delta SFC/10^6 cells,[1]; [11],3 SFC/10^6 cells
same,Ratio,[1]; [11],1.1
same,Delta SFC/10^6 cells,[1]; [12],1 SFC/10^6 cells
same,Ratio,[1]; [12],1.0
same,Delta SFC/10^6 cells,[2]; [13],150 SFC/10^6 cells
same,Ratio,[2]; [13],4.2
141 (RFHNIRGRW; Human papillomavirus type 16) [compound 141],Delta SFC/10^6 cells,[1]; [11],3 SFC/10^6 cells
same,Ratio,[1]; [11],1.1
same,Delta SFC/10^6 cells,[1]; [12],1 SFC/10^6 cells
same,Ratio,[1]; [12],1.0
same,Delta SFC/10^6 cells,[2]; [13],205 SFC/10^6 cells
same,Ratio,[2]; [13],6.9
143 (LYNLLIRWL; Human papillomavirus type 18-derived epitope) [compound 143],Delta SFC/10^6 cells,[1]; [11],3 SFC/10^6 cells
same,Ratio,[1]; [11],1.0
same,Delta SFC/10^6 cells,[1]; [12],1 SFC/10^6 cells
same,Ratio,[1]; [12],1.0
same,Delta SFC/10^6 cells,[2]; [13],30 SFC/10^6 cells
same,Ratio,[2]; [13],1.5
144 (LYGVSFTEL; Human papillomavirus type 16-derived epitope) [compound 144],Delta SFC/10^6 cells,[1]; [11],3 SFC/10^6 cells
same,Ratio,[1]; [11],1.0
same,Delta SFC/10^6 cells,[1]; [12],1 SFC/10^6 cells
same,Ratio,[1]; [12],1.0
same,Delta SFC/10^6 cells,[2]; [13],5 SFC/10^6 cells
same,Ratio,[2]; [13],1.1
145 (CYSVYGTTL; Human papillomavirus type 16-derived epitope) [compound 145],Delta SFC/10^6 cells,[1]; [11],23 SFC/10^6 cells
same,Ratio,[1]; [11],1.4
same,Delta SFC/10^6 cells,[1]; [12],90 SFC/10^6 cells
same,Ratio,[1]; [12],2.6
same,Delta SFC/10^6 cells,[2]; [13],55 SFC/10^6 cells
same,Ratio,[2]; [13],1.8
146 (QAEPDTSNY; Human papillomavirus type 31) [compound 146],ICCG6138 SFC/10^6 cells Delta,[1],23 SFC/10^6 cells
same,ICCG6138 SFC/10^6 cells Ratio,[1],2.5
same,Peptide Pool SFC/10^6 cells Delta,[2],4 SFC/10^6 cells
same,Peptide Pool SFC/10^6 cells Ratio,[2],1.2
147 (LQDVSIACVY; Human papillomavirus type 45) [compound 147],ICCG6138 SFC/10^6 cells Delta,[1],6 SFC/10^6 cells
same,ICCG6138 SFC/10^6 cells Ratio,[1],1.4
same,Peptide Pool SFC/10^6 cells Delta,[2],1 SFC/10^6 cells
same,Peptide Pool SFC/10^6 cells Ratio,[2],1.0
148 (FAFTDLTIV; Human papillomavirus type 31) [compound 148],ICCG6137 SFC/10^6 cells Delta,[1],1 SFC/10^6 cells
same,ICCG6137 SFC/10^6 cells Ratio,[1],1.0
same,ICCG6138 SFC/10^6 cells Delta,[1],1 SFC/10^6 cells
same,ICCG6138 SFC/10^6 cells Ratio,[1],1.0
same,Peptide Pool SFC/10^6 cells Delta,[2],100 SFC/10^6 cells
same,Peptide Pool SFC/10^6 cells Ratio,[2],8.5
149 (YQFAFKDLCI; Human papillomavirus type 45) [compound 149],ICCG6137 SFC/10^6 cells Delta,[1],3 SFC/10^6 cells
same,ICCG6137 SFC/10^6 cells Ratio,[1],1.1
same,ICCG6138 SFC/10^6 cells Delta,[1],1 SFC/10^6 cells
same,ICCG6138 SFC/10^6 cells Ratio,[1],1.0
same,Peptide Pool SFC/10^6 cells Delta,[2],10 SFC/10^6 cells
same,Peptide Pool SFC/10^6 cells Ratio,[2],2.0
150 (TLQEIVLHL; Human papillomavirus type 45) [compound 150],ICCG6137 SFC/10^6 cells Delta,[1],5 SFC/10^6 cells
same,ICCG6137 SFC/10^6 cells Ratio,[1],2.0
same,ICCG6138 SFC/10^6 cells Delta,[1],3 SFC/10^6 cells
same,ICCG6138 SFC/10^6 cells Ratio,[1],1.3
same,Peptide Pool SFC/10^6 cells Delta,[2],70 SFC/10^6 cells
same,Peptide Pool SFC/10^6 cells Ratio,[2],8.0
151 (RTEVYQFAFK; Human papillomavirus type 45) [compound 151],ICCG6137 SFC/10^6 cells Delta,[1],1 SFC/10^6 cells
same,ICCG6137 SFC/10^6 cells Ratio,[1],1.0
same,ICCG6138 SFC/10^6 cells Delta,[1],1 SFC/10^6 cells
same,ICCG6138 SFC/10^6 cells Ratio,[1],1.0
same,Peptide Pool SFC/10^6 cells Delta,[2],1 SFC/10^6 cells
same,Peptide Pool SFC/10^6 cells Ratio,[2],1.0
152 (SVYGTTLEK; Human papillomavirus type 31) [compound 152],ICCG6137 SFC/10^6 cells Delta,[1],1050 SFC/10^6 cells
same,ICCG6137 SFC/10^6 cells Ratio,[1],5.4
same,ICCG6138 SFC/10^6 cells Delta,[1],1150 SFC/10^6 cells
same,ICCG6138 SFC/10^6 cells Ratio,[1],9.7
same,Peptide Pool SFC/10^6 cells Delta,[2],730 SFC/10^6 cells
same,Peptide Pool SFC/10^6 cells Ratio,[2],6.2
153 (HYTNWKFIY; Human papilloma virus) [compound 153],ICCG6137 SFC/10^6 cells Delta,[1],19 SFC/10^6 cells
same,ICCG6137 SFC/10^6 cells Ratio,[1],1.3
same,ICCG6138 SFC/10^6 cells Delta,[1],58 SFC/10^6 cells
same,ICCG6138 SFC/10^6 cells Ratio,[1],1.3
same,Peptide Pool SFC/10^6 cells Delta,[2],155 SFC/10^6 cells
same,Peptide Pool SFC/10^6 cells Ratio,[2],2.7
